In patent US6160004A, “C-10 carbon-substituted artemisinin-like trioxane compounds having antimalarial, antiproliferative and antitumor activities” (priority 1998, dated 2000):
Read-outs that look alike come from different tables or passages of the source.

How the values were obtained:
60 cell line panel = conditions: 60 line panel, earlier studies; cited from earlier work
malaria = assay: In vivo antimalarial activity; parameters: species or system rodents; conditions: sc
P. berghei = conditions: P. berghei-infected mice, parasitemia 90 percent suppressed; cited from earlier work
[1] = tested on: P. falciparum, two Hanian strains; conditions: P. falciparum in vitro; cited from earlier work
[2] = cited from earlier work
[3] = tested on: Ehrlich ascites tumor (EAT) cells; conditions: MTT, growth inhibition; cited from earlier work
[4] = tested on: P. vivax and P. falciparum; conditions: cited from earlier work
[5] = tested on: P. falciparum Camp (chloroquine-susceptible) and Smith (chloroquine-resistant) strains; conditions: P. falciparum in vitro; cited from earlier work
HCC-2998 = assay: NCI 60 cell line panel screening assay (SRB), HCC-2998; assay type: cell-based; conditions: Homo sapiens, HCC 2998, 48 h, read-out: Log10 LC50 (converted)
Stability (hydrolysis) = assay type: physicochemical
SK-MEL-5 = assay: NCI 60 cell line panel screening assay (SRB), SK-MEL-5; assay type: cell-based; conditions: Homo sapiens; SK-MEL-5, melanoma, 48 h; read-out: Log10 GI50 (converted)
IGROVI = assay: NCI 60 cell line panel screening assay (SRB), IGROVI; assay type: cell-based; conditions: 48 h, read-out: Log10 TGI
[6] = tested on: murine keratinocyte cell line PE; assay: Growth inhibition of murine keratinocytes (MTT); assay type: cell-based, murine (SENCAR mice); conditions: 100 nanomolar
Experimental: To determine the inhibitory effect of the compositions of the present invention on cell proliferation, screening assays were performed on a murine keratinocyte cell line PE. Cell line PE was chosen for its particular sensitivity to the induction of ornithine decarboxylase (ODC) activity by the extensively characterized tumor promoter TPA. […] PE cell culture medium consisted of Eagle's minimal essential medium without calcium chloride (Whittaker Bioproducts, Walkersville, Mass.) supplemented with 8% chelexed fetal calf serum and 1% antibiotic-antimycotic (Gibco BRL) and the addition of CaCl2 to 0.05 mM Ca^++.
MTT [3-(4,5-dimethylthiazol-2-yl)-2,5-diphenyltetraxolium bromide] was purchased from Sigma Chemical Co. (St. Louis, Mo.), and TPA was supplied by L.C. Services (Woburn, Mass.). L-[^14 C]omithine (56 μCi/mol) was from Amersham/Searle Corp. (Arlington Heights, Ill.). Chemical solvents used in all assays of biological activity were of the highest grade commercially available.
Growth Inhibition. Growth curves, shown in FIGS. 1-5, for PE cells treated with calcitriol and the C-10 carbon-substituted dimers 38, 39, 43, 44, 45, 47 and 48, and monomer 27 generated by assay for the reduction of the tetrazolium-based compound MTT, see Charmichael, et al., Cancer Res., 47:936-942 (1987). […] PE cells were seeded at a density of 5,000 cells/well in 50 μL of medium into 96-well microtiter plates. Twelve hours later, the medium was removed, and cells were treated with 100 μL of fresh medium into which the appropriate amount of calcitriol or analog dissolved in dimethyl sulfoxide (DMSO) had been added, with the concentration of DMSO held constant at 0.1%. […] At 24-hour intervals following the initial treatment of the cells with compounds, 0.1 mg (50 μL of a 2 mg/mL solution) of MTT was added to each well. After 4 hours, the MTT was removed and DMSO added to dissolve the blue formazan dye. Using a microtiter plate reader, the A505 was then determined and cell number calculated from blank-subtracted absorbance values.

For `C[C@@H]1CC[C@H]2[C@@H](C)C(=O)O[C@@H]3O[C@@]4(C)CC[C@@H]1[C@]32OO4` [Artemisinin], the anticancer activity (60 cell line panel) is listed as “very little anticancer activity”, the ED50 (malaria; read-out: ED50 subcutaneous) is listed as 3 mg/kg and the ED90 (malaria; read-out: ED90 subcutaneous) is listed as 8.5 mg/kg. For the same compound, the SD90 (P. berghei) was 6.20 mg/kg, the “potency compared to chloroquine” value [1] was “comparable” and the solubility in water [2] was “insolubility in water”. For the same compound, the IC50 [3] was 29.8 µM, the “clinical outcome in malaria patients” value [4] was “clinical cure of all patients” and the “clinical outcome in malaria patients” value ([4]; listed as artemisinin) was “used successfully in many thousand malaria patients”. The “potency compared to mefloquine” value [5] was “comparable”.
For `C[C@H]1[C@@H](F)O[C@@H]2O[C@@]3(C)CC[C@H]4[C@H](C)CC[C@@H]1[C@@]24OO3` [Compound VI, 10β-Fluoro-10-deoxoartemisinin], the CC50 (HCC-2998) was > 100 µM, the stability (Stability (hydrolysis)) was “stable crystalline solid” and the GI50 (SK-MEL-5) was 0.49 µM.
With `CC1CCC2C(C)C(CC(=O)c3cccc(C(=O)CC4OC5OC6(C)CCC7C(C)CCC(C4C)C57OO6)c3)OC3OC4(C)CCC1C32OO4` (stereo not drawn) [Dimer 39] the IC (TGI) (IGROVI) was > 100 µM and the “antiproliferative activity relative to calcitriol” value [6] was “at least as antiproliferative as calcitriol”.
